From patent EP1808178A1, “Composition comprising Astragalus radix extracts for treating prostate cancer” (Golden Biotechnology Corp., priority 2005, dated 2007)

Test system: human prostate cancer cell lines- LNCaP cells
Experiment: In vitro mode adjunctive treatment activity assay with Taxol (MTT colorimetric cell survival)
Assay type: cell-based
Details: PCF1 concentration 0.0 µL/mL, i.e. Taxol (2nM) alone
Description: Utilize in vitro filter mode for human prostate cancer cell lines- LNCaP cells. Where human prostate cancer cell lines - LNCaP cells is being cultured in the culture medium which is supplemented by fetalbovine serum for 24 hours, and process cells by Taxol for 72 hours, and then change the culture medium so as to culture it in a new culture medium by adding assay sample for 72 hours, afterwards evaluate the cell survival rate by MIT colorimetric analysis method.
? The assay analysis of the compositions in accordance with the present invention in effect for suppressing the growth of human prostate cancer cells, wherein it is necessary to compute the cell survival rate for cells in each well of96-well microplate, afterwards evaluate the cancer cells survival rate by MIT colorimetric analysis method.
? MTT colorimetric analysis method: MTT is a kind of tertrazolium salt, with a full name of 3-[4, 5-Dimenthylthialzol-2-yl] 2, 5-diphenyltetrazoliumbromide, which is the yellow dye, capable to be absorbed by live cells and also be reduced to blue color formazan by succinate-tetrazoliumreductase in mitochondrion, which is commonly used for filtering the affection for matters to the growth and proliferation of cells.

CC(=O)O[C@H]1C(=O)[C@@]2(C)[C@H]([C@H](OC(=O)c3ccccc3)[C@]3(O)C[C@H](OC(=O)[C@H](O)[C@@H](NC(=O)c4ccccc4)c4ccccc4)C(C)=C1C3(C)C)[C@]1(OC(C)=O)CO[C@@H]1C[C@@H]2O [Taxol]
Cell Survival Rate (%): 56.4%
